Measurements taken from patent publication US20190202840A1, “SALTS OF (S)-7-(1-(9H-PURIN-6-YLAMINO)ETHYL)-6-(3-FLUOROPHENYL)-3-METHYL-5H-THIAZOLO[3,2-A]PYRIMIDIN-5-ONE” (Incyte Corporation, priority 2015, published 2019).

How the values were obtained:
human JAK1 = molecular target: T1, human JAK1 (Homo sapiens, UniProt P23458); test: In vitro JAK kinase assay (Example G, HTRF), JAK1; assay type: biochemical; conditions: 1 mM ATP
T1 construct: human JAK1 (a.a. 837-1142); made in house; host or cells: insect cells (baculovirus)

human JAK2 = molecular target: T2, human JAK2 (Homo sapiens, UniProt O60674); test: In vitro JAK kinase assay (Example G, HTRF), JAK2; assay type: biochemical; conditions: ratio of IC50s JAK2 over JAK1, 1 mM ATP
T2 construct: JAK2 (a.a. 828-1132); made in house; host or cells: insect cells (baculovirus)
T2 sequence (O60674 828-1132): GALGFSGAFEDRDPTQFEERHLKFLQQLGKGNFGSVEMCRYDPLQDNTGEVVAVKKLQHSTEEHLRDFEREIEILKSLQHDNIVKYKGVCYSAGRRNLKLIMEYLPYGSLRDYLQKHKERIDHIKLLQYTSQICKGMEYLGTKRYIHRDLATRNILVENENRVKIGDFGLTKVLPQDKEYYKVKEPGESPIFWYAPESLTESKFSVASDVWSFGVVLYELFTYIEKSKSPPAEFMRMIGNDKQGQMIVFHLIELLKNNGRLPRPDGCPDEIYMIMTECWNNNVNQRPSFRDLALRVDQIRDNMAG

T1 sequence (P23458 849-1154): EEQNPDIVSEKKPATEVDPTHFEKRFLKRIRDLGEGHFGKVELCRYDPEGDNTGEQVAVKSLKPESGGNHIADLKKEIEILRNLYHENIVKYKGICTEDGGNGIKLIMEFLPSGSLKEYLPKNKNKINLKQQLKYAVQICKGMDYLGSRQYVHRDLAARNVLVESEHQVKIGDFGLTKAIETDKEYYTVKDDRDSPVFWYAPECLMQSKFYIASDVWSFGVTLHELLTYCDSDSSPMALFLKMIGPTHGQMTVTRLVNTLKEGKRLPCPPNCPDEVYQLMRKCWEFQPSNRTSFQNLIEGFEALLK

SMILES | IC50 (human JAK1) | JAK2/JAK1 (human JAK2)
N#CCC(C1CCN(c2cccc(Cl)n2)C1)n1cc(-c2ncnc3[nH]ccc23)cn1 (single isomer, unassigned) [Compound 3, 3-[1-(6-chloropyridin-2-yl)pyrrolidin-3-yl]-3-[4-(7H-pyrrolo[2,3-d]pyrimidin-4-yl)-1H-pyrazol-1-yl]propanenitrile] | < 0.01 µM | >10
C[C@@H](O)c1nc2cnc3ccsc3c2n1[C@H]1CC[C@H](CC#N)OC1 [Compound 1, ((2R,5S)-5-{2-[(1R)-1-hydroxyethyl]-1H-imidazo[4,5-d]thieno[3,2-b]pyridin-1-yl}tetrahydro-2H-pyran-2-yl)acetonitrile] | < 0.1 µM | >10
N#CCC(C1CCN(c2nc3cccnc3o2)C1)n1cc(-c2ncnc3[nH]ccc23)cn1 (centres unmarked) [Compound 4, 3-(1-[1,3]oxazolo[5,4-b]pyridin-2-ylpyrrolidin-3-yl)-3-[4-(7H-pyrrolo[2,3-d]pyrimidin-4-yl)-1H-pyrazol-1-yl]propanenitrile] | < 0.01 µM | >10
N#CCC(CN1CCN(C(=O)c2ccc(C#N)cc2F)CC1)n1cc(-c2ncnc3[nH]ccc23)cn1 (centres unmarked) [Compound 5, 4-[(4-{3-cyano-2-[4-(7H-pyrrolo[2,3-d]pyrimidin-4-yl)-1H-pyrazol-1-yl]propyl}piperazin-1-yl)carbonyl]-3-fluorobenzonitrile] | < 0.01 µM | >10
N#CCC(CN1CCN(C(=O)c2ccc(C#N)cc2F)CC1)n1ccc(-c2ncnc3[nH]ccc23)c1 (centres unmarked) [Compound 6, 4-[(4-{3-cyano-2-[3-(7H-pyrrolo[2,3-d]pyrimidin-4-yl)-1H-pyrrol-1-yl]propyl}piperazin-1-yl)carbonyl]-3-fluorobenzonitrile] | < 0.01 µM | >10
N#CCC1(n2cc(-c3ncnc4[nH]ccc34)cn2)CN(C2CCN(C(=O)c3ccnc(C(F)(F)F)c3F)CC2)C1 [Compound 7, {1-{1-[3-Fluoro-2-(trifluoromethyl)isonicotinoyl]piperidin-4-yl}-3-[4-(7H-pyrrolo[2,3-d]pyrimidin-4-yl)-1H-pyrazol-1-yl]azetidin-3-yl}acetonitrile] | < 0.01 µM | >10
N#CCC1(n2cc(-c3ncnc4[nH]ccc34)cn2)CN(C2CCN(C(=O)Nc3ccc(F)cc3C(F)(F)F)CC2)C1 [Compound 8, 4-{3-(Cyanomethyl)-3-[4-(7H-pyrrolo[2,3-d]pyrimidin-4-yl)-1H-pyrazol-1-yl]azetidin-1-yl}-N-[4-fluoro-2-(trifluoromethyl)phenyl]piperidine-1-carboxamide] | < 0.01 µM | >10
N#CCC1(n2cc(-c3ncnc4[nH]ccc34)cn2)CN(C2CCN(C(=O)c3ccnc(C(F)(F)F)n3)CC2)C1 [Compound 9, [3-[4-(7H-pyrrolo[2,3-d]pyrimidin-4-yl)-1H-pyrazol-1-yl]-1-(1-{[2-(trifluoromethyl)pyrimidin-4-yl]carbonyl}piperidin-4-yl)azetidin-3-yl]acetonitrile] | < 0.01 µM | >10
N#CC[C@]1(n2cc(-c3ncnc4[nH]ccc34)cn2)C[C@H](N2CCN(C(=O)c3ccnc(C(F)(F)F)n3)CC2)C1 [Compound 10, [trans-1-[4-(7H-pyrrolo[2,3-d]pyrimidin-4-yl)-1H-pyrazol-1-yl]-3-(4-{[2-(trifluoromethyl)pyrimidin-4-yl]carbonyl}piperazin-1-yl)cyclobutyl]acetonitrile] | < 0.01 µM | >10
N#CC[C@]1(n2cc(-c3ncnc4[nH]ccc34)cn2)C[C@H](N2CCC(Oc3cc(CN4CC(O)C4)cc(C(F)(F)F)n3)CC2)C1 [Compound 11, {trans-3-(4-{[4-[(3-hydroxyazetidin-1-yl)methyl]-6-(trifluoromethyl)pyridin-2-yl]oxy}piperidin-1-yl)-1-[4-(7H-pyrrolo[2,3-d]pyrimidin-4-yl)-1H-pyrazol-1-yl]cyclobutyl}acetonitrile] | < 0.01 µM | >10
N#CC[C@]1(n2cc(-c3ncnc4[nH]ccc34)cn2)C[C@H](N2CCC(Oc3cc(CN4CCC[C@H]4CO)cc(C(F)(F)F)n3)CC2)C1 [Compound 12, {trans-3-(4-{[4-{[(2S)-2-(hydroxymethyl)pyrrolidin-1-yl]methyl}-6-(trifluoromethyl)pyridin-2-yl]oxy}piperidin-1-yl)-1-[4-(7H-pyrrolo[2,3-d]pyrimidin-4-yl)-1H-pyrazol-1-yl]cyclobutyl}acetonitrile] | < 0.01 µM | >10
N#CC[C@]1(n2cc(-c3ncnc4[nH]ccc34)cn2)C[C@H](N2CCC(Oc3cc(CN4CCC[C@@H]4CO)cc(C(F)(F)F)n3)CC2)C1 [Compound 13, {trans-3-(4-{[4-{[(2R)-2-(hydroxymethyl)pyrrolidin-1-yl]methyl}-6-(trifluoromethyl)pyridin-2-yl]oxy}piperidin-1-yl)-1-[4-(7H-pyrrolo[2,3-d]pyrimidin-4-yl)-1H-pyrazol-1-yl]cyclobutyl}acetonitrile] | < 0.01 µM | >10
C[C@H](NC(=O)c1cc(F)c(N2CC(CC#N)(n3cc(-c4ncnc5[nH]ccc45)cn3)C2)cc1F)C(F)(F)F [Compound 16, 4-{3-(cyanomethyl)-3-[4-(7H-pyrrolo[2,3-d]pyrimidin-4-yl)-1H-pyrazol-1-yl]azetidin-1-yl}-2,5-difluoro-N-[(1S)-2,2,2-trifluoro-1-methylethyl]benzamide] | < 0.01 µM | >10
N#CCC1(n2cc(-c3ncnc4[nH]ccc34)cn2)CN([C@H]2CC[C@@H](Oc3cc(CCO)nc(C(F)(F)F)n3)CC2)C1 [Compound 18, {1-(cis-4-{[6-(2-hydroxyethyl)-2-(trifluoromethyl)pyrimidin-4-yl]oxy}cyclohexyl)-3-[4-(7H-pyrrolo[2,3-d]pyrimidin-4-yl)-1H-pyrazol-1-yl]azetidin-3-yl}acetonitrile] | < 0.01 µM | >10
CCNCc1cc(O[C@H]2CC[C@@H](N3CC(CC#N)(n4cc(-c5ncnc6[nH]ccc56)cn4)C3)CC2)nc(C(F)(F)F)c1 [Compound 19, {1-(cis-4-{[4-[(ethylamino)methyl]-6-(trifluoromethyl)pyridin-2-yl]oxy}cyclohexyl)-3-[4-(7H-pyrrolo[2,3-d]pyrimidin-4-yl)-1H-pyrazol-1-yl]azetidin-3-yl}acetonitrile] | < 0.01 µM | >10
CC(C)(O)c1cc(O[C@H]2CC[C@@H](N3CC(CC#N)(n4cc(-c5ncnc6[nH]ccc56)cn4)C3)CC2)nc(C(F)(F)F)c1 [Compound 20, {1-(cis-4-{[4-(1-hydroxy-1-methylethyl)-6-(trifluoromethyl)pyridin-2-yl]oxy}cyclohexyl)-3-[4-(7H-pyrrolo[2,3-d]pyrimidin-4-yl)-1H-pyrazol-1-yl]azetidin-3-yl}acetonitrile] | < 0.01 µM | >10
N#CCC1(n2cc(-c3ncnc4[nH]ccc34)cn2)CN([C@H]2CC[C@@H](Oc3cc(CN4CC[C@@H](O)C4)cc(C(F)(F)F)n3)CC2)C1 [Compound 21, {1-(cis-4-{[4-{[(3R)-3-hydroxypyrrolidin-1-yl]methyl}-6-(trifluoromethyl)pyridin-2-yl]oxy}cyclohexyl)-3-[4-(7H-pyrrolo[2,3-d]pyrimidin-4-yl)-1H-pyrazol-1-yl]azetidin-3-yl}acetonitrile] | < 0.01 µM | >10
N#CCC1(n2cc(-c3ncnc4[nH]ccc34)cn2)CN([C@H]2CC[C@@H](Oc3cc(CN4CC[C@H](O)C4)cc(C(F)(F)F)n3)CC2)C1 [Compound 22, {1-(cis-4-{[4-{[(3S)-3-hydroxypyrrolidin-1-yl]methyl}-6-(trifluoromethyl)pyridin-2-yl]oxy}cyclohexyl)-3-[4-(7H-pyrrolo[2,3-d]pyrimidin-4-yl)-1H-pyrazol-1-yl]azetidin-3-yl}acetonitrile] | < 0.01 µM | >10
C[C@@H](CO)NCc1cc(OC2CCN([C@H]3C[C@](CC#N)(n4cc(-c5ncnc6[nH]ccc56)cn4)C3)CC2)nc(C(F)(F)F)c1 [Compound 23, {trans-3-(4-{[4-({[(1S)-2-hydroxy-1-methylethyl]amino}methyl)-6-(trifluoromethyl)pyridin-2-yl]oxy}piperidin-1-yl)-1-[4-(7H-pyrrolo[2,3-d]pyrimidin-4-yl)-1H-pyrazol-1-yl]cyclobutyl}acetonitrile] | < 0.01 µM | >10
C[C@@H](O)CNCc1cc(OC2CCN([C@H]3C[C@](CC#N)(n4cc(-c5ncnc6[nH]ccc56)cn4)C3)CC2)nc(C(F)(F)F)c1 [Compound 24, {trans-3-(4-{[4-({[(2R)-2-hydroxypropyl]amino}methyl)-6-(trifluoromethyl)pyridin-2-yl]oxy}piperidin-1-yl)1-[4-(7H-pyrrolo[2,3-d]pyrimidin-4-yl)-1H-pyrazol-1-yl]cyclobutyl}acetonitrile] | < 0.01 µM | >10
C[C@H](O)CNCc1cc(OC2CCN([C@H]3C[C@](CC#N)(n4cc(-c5ncnc6[nH]ccc56)cn4)C3)CC2)nc(C(F)(F)F)c1 [Compound 25, {trans-3-(4-{[4-({[(2S)-2-hydroxypropyl]amino}methyl)-6-(trifluoromethyl)pyridin-2-yl]oxy}piperidin-1-yl)-1-[4-(7H-pyrrolo[2,3-d]pyrimidin-4-yl)-1H-pyrazol-1-yl]cyclobutyl}acetonitrile] | < 0.01 µM | >10
N#CC[C@]1(n2cc(-c3ncnc4[nH]ccc34)cn2)C[C@H](N2CCC(Oc3cc(CCO)cc(C(F)(F)F)n3)CC2)C1 [Compound 26, {trans-3-(4-{[4-(2-hydroxyethyl)-6-(trifluoromethyl)pyridin-2-yl]oxy}piperidin-1-yl)-1-[4-(7H-pyrrolo[2,3-d]pyrimidin-4-yl)-1H-pyrazol-1-yl]cyclobutyl}acetonitrile] | < 0.01 µM | >10
